# Experimental data: ChEMBL document CHEMBL1201862, “PubChem BioAssay data set” (2004)
# Active and inactive are the calls of the source.
# What was measured:
# [1] = molecular target: Endoplasmic reticulum aminopeptidase 1 (Homo sapiens, UniProt Q9NZ08); test: inhibition of human ERAP1 enzyme activity – biochemical, cherry-pick, set 2, plate reader, dose response (AID 743314)
# [2] = HIV-1 AD8 envelope cell-cell fusion blockers – cherry-pick, dose response (AID 652062); type: functional, cell-based;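 also: luciferase signal from cell-cell fusion driven by HIV-1 clade B AD8 Env; potency is for inhibitors of fusion seen as a drop in luminescence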
# [3] = blockers of HIV-1 envelope-mediated cell-cell fusion – cherry-pick, dose response (AID 652057); type: functional, cell-based
# [4] = intracellular Trypanosoma cruzi inhibitors in host cells – cell-based, plate reader, cherry-pick samples, set 3, dose response (AID 651818); type: functional;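 also: compounds incubated with infected cells for about four days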
# [5] = viability loss in Vero cells – cytotoxicity control for Vif-APOBEC3G degradation inhibitor project, dose response (AID 1117358); type: functional; conditions: Vero
# [6] = HIV-1 Vif–A3G interaction blockers – biochemical, TR-FRET, GST-Vif 1-94, biotin-A3G peptide, dose response retest, primary screen (AID 1117319); type: functional;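 also: TR-FRET signal of purified GST-Vif binding a biotinylated A3G peptide; inhibitors lower the FRET signal by blocking Vif and A3G binding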
# [7] = Fluorescence-based cell-based high throughput dose response assay for inhibitors of the interaction of nucleotide-binding oligomerization domain containing 2 (NOD2) and the receptor-interacting serine-threonine kinase 2 (RIPK2).; type: functional; conditions: Homo sapiens
# [8] = viability of PTEN-deleted HCT116 cells – cell-based, HCT116 PTEN knockout, dose response (AID 1047); type: functional;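 also: HCT116 colon tumor cells with PTEN knocked out; cells exposed to compound for 60 hours before readout; potency for loss of cell viability measured by luminescence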
# [9] = molecular target: T1, Heat shock factor protein 1 (Mus musculus, UniProt P38532); test: enhancement of HSF1-driven luciferase signal – cell-based, NIH3T3, luminescence, dose retest, confirmation (AID 435004); type: functional;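 also: stress induced by proteasome inhibitor MG132 added 30 min after compound; luciferase reporter driven by HSF1 response element in NIH3T3 cells; actives raise luminescence as potentiators of the MG132 stress response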
# T1 sequence (P38532 whole entry): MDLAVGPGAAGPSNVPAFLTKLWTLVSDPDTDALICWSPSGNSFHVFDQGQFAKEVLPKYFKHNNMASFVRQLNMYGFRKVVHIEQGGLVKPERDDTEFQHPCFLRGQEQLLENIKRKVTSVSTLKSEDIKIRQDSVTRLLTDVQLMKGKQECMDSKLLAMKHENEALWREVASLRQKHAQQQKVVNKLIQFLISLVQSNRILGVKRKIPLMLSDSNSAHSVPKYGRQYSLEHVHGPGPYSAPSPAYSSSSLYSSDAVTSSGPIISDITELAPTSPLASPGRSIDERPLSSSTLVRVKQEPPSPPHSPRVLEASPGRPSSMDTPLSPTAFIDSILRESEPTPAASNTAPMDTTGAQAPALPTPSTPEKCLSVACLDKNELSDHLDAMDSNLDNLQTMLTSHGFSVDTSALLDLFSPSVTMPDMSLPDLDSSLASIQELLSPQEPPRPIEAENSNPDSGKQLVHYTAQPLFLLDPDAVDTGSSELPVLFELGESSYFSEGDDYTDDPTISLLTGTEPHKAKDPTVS
# [10] = viability of HCT116 lacking mutant beta-catenin – cell-based, human colon tumor, dose response (AID 1045); type: functional;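 also: HCT116 colon tumor cells with beta catenin knocked out; cells exposed to compound for 60 hours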
# [11] = Luminescence Cell-Based Dose Retest to Confirm Inhibitors of Cancer Stem Cells. [Related pubchem assays (depositor defined):AID2717, AID2721]; type: functional; conditions: Homo sapiens
# cells [12] = type: functional, cell-based
# cells [13] = type: functional, cell-based; remark: listed apart in the source
# [14] = molecular target: Dual specificity tyrosine-phosphorylation-regulated kinase 1A (Rattus norvegicus, UniProt Q63470); type: biochemical, Homo sapiens
# [15] = molecular target: Disintegrin and metalloproteinase domain-containing protein 17 (Homo sapiens, UniProt P78536); test: inhibition of ADAM17 substrate cleavage – biochemical, quenched FRET substrate, counter-screen for ADAM10 exosite inhibitor project, dose response (AID 743253)
# [16] = Trypanosoma cruzi growth suppression in host cells – NIH3T3 host cells, beta-gal luminescence, confirmation (AID 2044); type: functional, cell-based;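 also: intracellular parasites grown in NIH/3T3 mouse fibroblasts as host cells; luminescent beta-galactosidase reporter signal from transgenic T. cruzi replicating inside host cells; inhibitors lower the luminescence signal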
# [17] = tested on: Streptococcus sp. 'group A'; test: Streptococcus pyogenes SK(-)GAS viability under kanamycin – luminescence, BacTiterGlo, confirmation, counter-screen for streptokinase expression inhibitor project, dose response (AID 1900); type: functional, organism-based
# [18] = NIH3T3 cell viability loss – ATP luminescence, mouse fibroblasts, counter-screen, dose response (AID 2010); type: functional, cell-based;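 also: cells exposed to compound for about 90 hours before reading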
# Streptococcus = test: GAS UMAA2166 growth inhibition – luminescence, BacTiterGlo, counter-screen for streptokinase expression inhibitor project, dose response (AID 1915); type: functional, organism-based;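 also: potency for reduction of bacterial viability or growth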
# Streptokinase A = molecular target: T2, Streptokinase A (Streptococcus pyogenes serotype M1, UniProt P10520); test: viability-normalized secreted streptokinase activity reduction – plasminogen activation absorbance, OD405, dose response (AID 1914); type: functional, Streptococcus pyogenes M1 GAS;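 also: secreted streptokinase activity via plasminogen activation per viability signal from cell pellet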
# T2 sequence (P10520 whole entry): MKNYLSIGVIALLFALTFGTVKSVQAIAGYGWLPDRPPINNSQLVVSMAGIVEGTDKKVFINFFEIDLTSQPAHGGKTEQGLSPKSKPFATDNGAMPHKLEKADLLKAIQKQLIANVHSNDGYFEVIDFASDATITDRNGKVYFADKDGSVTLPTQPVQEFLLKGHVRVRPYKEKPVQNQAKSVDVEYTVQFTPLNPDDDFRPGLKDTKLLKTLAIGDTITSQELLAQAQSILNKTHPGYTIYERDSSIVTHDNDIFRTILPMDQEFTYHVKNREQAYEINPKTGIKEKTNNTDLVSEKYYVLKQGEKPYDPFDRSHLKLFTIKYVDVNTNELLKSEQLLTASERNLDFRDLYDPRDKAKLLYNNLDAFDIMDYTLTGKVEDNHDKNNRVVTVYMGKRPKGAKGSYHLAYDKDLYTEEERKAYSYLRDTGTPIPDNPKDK
# [19] = fluconazole-exposed Candida albicans growth modulators – fluorescence, retest, confirmation (AID 2467); type: functional, cell-based
# [20] = NIH-3T3 fibroblast cytotoxicity, dose response, cytotoxicity control, cell-based, fluorescence, Alamar Blue, secondary assay (AID 2327); type: functional;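 also: NIH-3T3 mouse fibroblasts cultured with fluconazole at 8 µg/mL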
# [21] = molecular target: T3, Long-chain-fatty-acid--AMP ligase FadD28 (Mycobacterium tuberculosis, UniProt P9WQ59); test: Fluorescence polarization aasay to screen for inhibitors that compete for the binding of FadD28 to a bisubstrate Measured in Biochemical System Using Plate Reader - 2147-01_Inhibitor_Dose_CherryPick_Activity.; type: functional, Mycobacterium tuberculosis H37Rv
# T3 sequence (P9WQ59 whole entry): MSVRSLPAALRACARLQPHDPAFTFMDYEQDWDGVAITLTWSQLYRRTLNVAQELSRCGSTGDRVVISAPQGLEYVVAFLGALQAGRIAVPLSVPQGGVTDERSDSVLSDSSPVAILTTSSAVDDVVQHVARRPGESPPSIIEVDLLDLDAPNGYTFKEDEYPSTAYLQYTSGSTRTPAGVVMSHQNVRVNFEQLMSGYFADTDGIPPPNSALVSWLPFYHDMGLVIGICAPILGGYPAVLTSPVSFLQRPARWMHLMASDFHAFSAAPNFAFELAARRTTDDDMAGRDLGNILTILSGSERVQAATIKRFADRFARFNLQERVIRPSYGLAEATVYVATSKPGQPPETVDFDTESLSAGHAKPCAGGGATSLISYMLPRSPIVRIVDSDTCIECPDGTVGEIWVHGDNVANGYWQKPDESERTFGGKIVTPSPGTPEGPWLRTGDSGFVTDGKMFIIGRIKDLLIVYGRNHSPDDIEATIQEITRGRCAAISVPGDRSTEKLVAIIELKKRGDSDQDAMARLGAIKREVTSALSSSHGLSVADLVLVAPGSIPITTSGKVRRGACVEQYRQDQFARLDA
# Phospholipase A2 = Phospholipase A2 (Homo sapiens, UniProt P04054); type: functional;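 also: confirmatory dose-response counterscreen on phospholipase A2, testing hits that came from an ultra-high-throughput screen for ATG4B inhibitors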
# Cysteine protease ATG4B = molecular target: T4, Cysteine protease ATG4B (Homo sapiens, UniProt Q9Y4P1); type: functional;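 also: Fluorescence-based dose-response confirmation assay measuring inhibition of ATG4B activity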
# T4 sequence (Q9Y4P1 whole entry): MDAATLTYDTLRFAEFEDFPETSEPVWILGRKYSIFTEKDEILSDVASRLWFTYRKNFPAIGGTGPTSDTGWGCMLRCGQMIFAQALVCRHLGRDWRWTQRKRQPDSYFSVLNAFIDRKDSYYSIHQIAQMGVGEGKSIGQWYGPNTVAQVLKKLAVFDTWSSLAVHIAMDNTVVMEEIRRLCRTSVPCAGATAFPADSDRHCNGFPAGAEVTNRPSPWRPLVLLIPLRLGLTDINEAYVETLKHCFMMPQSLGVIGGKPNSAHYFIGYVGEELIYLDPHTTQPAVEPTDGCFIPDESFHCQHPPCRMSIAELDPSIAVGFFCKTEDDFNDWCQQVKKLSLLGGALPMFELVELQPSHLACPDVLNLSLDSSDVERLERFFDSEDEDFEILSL
# [22] = off-target signal loss in HeLa-CEM21 co-culture – HeLa F-luc CTL cells, cherry-picked, counter-screen for HIV-1 Env fusion inhibitor project, dose response (AID 652040); type: functional, cell-based;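 also: potency for signal decrease marking cytotoxic or nonspecific inhibition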
# Chain of Endoplasmic reticulum aminopeptidase 1 (Q9NZ08 whole entry, the tested form may be a part): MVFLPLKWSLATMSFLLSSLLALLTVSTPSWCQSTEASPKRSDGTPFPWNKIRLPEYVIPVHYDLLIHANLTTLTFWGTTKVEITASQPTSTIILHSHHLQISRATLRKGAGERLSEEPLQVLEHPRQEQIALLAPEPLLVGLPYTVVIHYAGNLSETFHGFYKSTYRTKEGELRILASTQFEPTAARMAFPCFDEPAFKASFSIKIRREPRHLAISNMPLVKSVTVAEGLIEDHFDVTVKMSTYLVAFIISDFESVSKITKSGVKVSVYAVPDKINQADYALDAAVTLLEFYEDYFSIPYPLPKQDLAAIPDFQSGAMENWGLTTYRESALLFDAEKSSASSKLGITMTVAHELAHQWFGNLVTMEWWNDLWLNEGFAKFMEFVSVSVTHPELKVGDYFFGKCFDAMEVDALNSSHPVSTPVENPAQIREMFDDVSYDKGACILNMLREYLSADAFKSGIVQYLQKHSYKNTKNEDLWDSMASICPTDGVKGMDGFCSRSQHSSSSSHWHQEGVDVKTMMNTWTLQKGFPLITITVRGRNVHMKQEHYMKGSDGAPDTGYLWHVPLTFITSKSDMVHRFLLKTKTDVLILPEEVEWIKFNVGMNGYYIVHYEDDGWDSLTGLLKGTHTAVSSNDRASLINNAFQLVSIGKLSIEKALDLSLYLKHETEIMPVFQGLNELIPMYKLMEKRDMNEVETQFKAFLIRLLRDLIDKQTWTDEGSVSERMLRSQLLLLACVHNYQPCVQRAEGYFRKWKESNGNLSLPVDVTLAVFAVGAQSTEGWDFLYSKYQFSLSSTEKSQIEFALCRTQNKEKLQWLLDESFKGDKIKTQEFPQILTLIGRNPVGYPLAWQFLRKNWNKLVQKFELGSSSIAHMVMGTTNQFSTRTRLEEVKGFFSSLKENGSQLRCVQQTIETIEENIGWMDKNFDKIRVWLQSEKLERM
# Chain of Phospholipase A2 (P04054 whole entry): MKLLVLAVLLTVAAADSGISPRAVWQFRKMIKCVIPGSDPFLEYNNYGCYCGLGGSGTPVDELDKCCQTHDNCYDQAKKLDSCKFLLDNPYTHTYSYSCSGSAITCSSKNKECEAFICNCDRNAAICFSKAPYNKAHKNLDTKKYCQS
# Chain of Disintegrin and metalloproteinase domain-containing protein 17 (P78536 whole entry, the tested form may be a part): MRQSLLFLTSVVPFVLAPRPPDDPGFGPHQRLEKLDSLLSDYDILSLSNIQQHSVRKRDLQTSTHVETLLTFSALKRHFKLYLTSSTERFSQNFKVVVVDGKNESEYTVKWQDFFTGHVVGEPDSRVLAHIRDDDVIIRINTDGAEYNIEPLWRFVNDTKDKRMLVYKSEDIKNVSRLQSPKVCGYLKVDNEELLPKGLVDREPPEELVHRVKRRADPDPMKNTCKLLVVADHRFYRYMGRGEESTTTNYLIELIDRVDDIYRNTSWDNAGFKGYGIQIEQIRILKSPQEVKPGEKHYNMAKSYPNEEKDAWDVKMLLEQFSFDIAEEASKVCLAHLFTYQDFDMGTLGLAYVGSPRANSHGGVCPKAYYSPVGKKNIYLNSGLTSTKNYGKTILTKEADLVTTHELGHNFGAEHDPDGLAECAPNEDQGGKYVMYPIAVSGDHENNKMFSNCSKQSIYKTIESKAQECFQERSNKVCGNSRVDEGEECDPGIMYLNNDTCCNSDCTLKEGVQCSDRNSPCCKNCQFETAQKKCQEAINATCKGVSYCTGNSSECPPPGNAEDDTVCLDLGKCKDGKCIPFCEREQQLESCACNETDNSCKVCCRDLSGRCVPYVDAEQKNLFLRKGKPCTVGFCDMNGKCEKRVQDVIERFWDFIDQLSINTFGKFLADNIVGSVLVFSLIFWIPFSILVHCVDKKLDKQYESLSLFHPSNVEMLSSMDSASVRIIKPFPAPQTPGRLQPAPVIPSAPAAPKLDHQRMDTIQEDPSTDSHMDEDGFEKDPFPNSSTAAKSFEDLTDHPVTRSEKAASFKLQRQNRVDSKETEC
compound,measurement,setting,value
CN1[C@H](C(=O)NC2CCC2)[C@@H](CO)[C@@H]2Cn3c(ccc(/C=C/c4ccccc4)c3=O)[C@@H]21,AC50,[1],18 µM (active)
Cc1noc(C)c1S(=O)(=O)N(C)C[C@@H]1Oc2ccc(NC(=O)Cc3ccccc3)cc2CC(=O)N([C@H](C)CO)C[C@@H]1C,AC50,[2],2.92 µM (active)
same,AC50,[3],< 0.26 µM (active)
C[C@@H]1CN([C@@H](C)CO)C(=O)Cc2cc(NC(=O)Nc3ccc(C(F)(F)F)cc3)ccc2O[C@@H]1CN(C)S(=O)(=O)c1cccs1,AC50,[4],3.54 µM (active)
Cc1ccc(CN(C(=O)Cn2nnc3ccccc32)C(C(=O)NCc2ccco2)c2cccs2)cc1 (stereo not given),CC50,[5],> 40 µM (active)
CCOC(=O)N1CCC(N2C(=O)c3ccccc3C2Nc2ccccc2)CC1 (stereo not given),IC50,[6],> 100 µM (active)
Cc1cc(SC#N)cc(C)c1NC(=O)CCl,IC50,[7],11.1 µM (inactive)
same,EC50,[8],19.8 µM (active)
same,EC50,[9],5.97 µM (active)
same,EC50,[10],17.4 µM (active)
C[C@@H]1CN([C@H](C)CO)C(=O)c2cccc(NC(=O)c3cnccn3)c2O[C@@H]1CN(C)Cc1ccc(C(=O)Nc2ccccc2N)cc1,AC50,[4],3.06 µM (active)
CCC(=O)Nc1ccc(C(=O)Cn2ncc(Cl)c(Cl)c2=O)cc1,IC50,[7],6.53 µM (active)
same,AC50,[11],5.04 µM (active)
C[C@@H]1O[C@@H](OC[C@H]2O[C@@H](Oc3c(-c4ccc(O)cc4)oc4cc(O)cc(O)c4c3=O)[C@H](O)[C@@H](O)[C@@H]2O)[C@H](O)[C@H](O)[C@H]1O [NICOTIFLOROSIDE],EC50,cells [12],> 350 µM (not active)
same,EC50,cells [13],> 350 µM (not active)
same,AC50,[14],7.78 µM (active)
COC(=O)c1cnn2c(C)c(Cc3cccc(F)c3)c(C)nc12,CC50,[5],> 40 µM (active)
N#Cc1cn(CCOc2ccccc2F)c2ccccc12,CC50,[5],> 40 µM (active)
O=C(NCc1ccccc1)[C@@H]1[C@@H](CO)[C@@H]2Cn3c(ccc(/C=C/c4ccccc4)c3=O)[C@H]1N2CC1CC1,AC50,[1],11.1 µM (active)
COc1ccc(CCN2C(=O)c3cccnc3C2=O)cc1OC,IC50,[6],> 100 µM (active)
C[C@@H]1CCCCO[C@@H](CN(C)Cc2ccc(C(=O)Nc3ccccc3N)cc2)[C@@H](C)CN([C@H](C)CO)C(=O)c2cc(NC(=O)Nc3ccc(C(F)(F)F)cc3)ccc2O1,AC50,[4],0.554 µM (active)
CCN1[C@@H]2c3ccc(/C=C/c4ccccc4)c(=O)n3C[C@H]1[C@H](CO)[C@H]2C(=O)N1CCOCC1,AC50,[1],6.11 µM (active)
O=[N+]([O-])c1ccc(S(=O)(=O)Nc2ccc(-c3csc(-c4ccccc4)n3)cc2)cc1,IC50,[15],> 69.5 µM (inactive)
same,EC50,[16],0.118 µM (active)
same,EC50,[17],3.77 µM (active)
same,AC50,[11],2.33 µM (active)
same,EC50,[18],> 60 µM (not active)
same,EC50,Streptococcus,8.29 µM (active)
same,EC50,Streptokinase A,> 150 µM (not active)
Nc1nn2c(O)cc(-c3ccccc3)nc2c1N=Nc1ccc(S(N)(=O)=O)cc1,EC50,[19],> 38 µM (not active)
same,AC50,[14],1.3 µM (active)
same,EC50,[20],> 160 µM (inactive)
C[C@H]1CN([C@@H](C)CO)C(=O)Cc2cc(NS(=O)(=O)c3ccc(Cl)cc3)ccc2O[C@H]1CN(C)CC1CCCCC1,AC50,[4],5.05 µM (active)
O=C([C@@H]1[C@@H](CO)[C@@H]2Cn3c(ccc(/C=C/c4ccccc4)c3=O)[C@@H]2N1CC1CC1)N1CCOCC1,AC50,[1],13.7 µM (active)
O=C(O)c1cc(Br)ccc1NN=C1CCCCC1,AC50,[21],> 100 µM (inactive)
same,IC50,Phospholipase A2,9.4 µM (active)
same,IC50,Cysteine protease ATG4B,13.4 µM (active)
O=C1c2cccc(OCc3ccc(F)cc3)c2CCN1Cc1ccccc1,AC50,[22],4.11 µM (active)
same,AC50,[2],10.1 µM (active)
O=C(c1ccc(S(=O)(=O)N2CCOCC2)cc1)N1CCN(c2cccc(Cl)c2)CC1,IC50,[6],> 100 µM (active)
